Data published in ChEMBL document CHEMBL1145622, “2-Aminomethyl piperidines as novel urotensin-II receptor antagonists” (Bioorg Med Chem Lett, 2008).

Assays:
[1] = molecular target: T1, Urotensin-2 receptor (Homo sapiens, UniProt Q9UKP6); assay: Displacement of [125I]human urotensin 2 from human recombinant urotensin 2 receptor expressed in HEK293 cells; format: cell-based
T1 sequence (Q9UKP6 whole entry): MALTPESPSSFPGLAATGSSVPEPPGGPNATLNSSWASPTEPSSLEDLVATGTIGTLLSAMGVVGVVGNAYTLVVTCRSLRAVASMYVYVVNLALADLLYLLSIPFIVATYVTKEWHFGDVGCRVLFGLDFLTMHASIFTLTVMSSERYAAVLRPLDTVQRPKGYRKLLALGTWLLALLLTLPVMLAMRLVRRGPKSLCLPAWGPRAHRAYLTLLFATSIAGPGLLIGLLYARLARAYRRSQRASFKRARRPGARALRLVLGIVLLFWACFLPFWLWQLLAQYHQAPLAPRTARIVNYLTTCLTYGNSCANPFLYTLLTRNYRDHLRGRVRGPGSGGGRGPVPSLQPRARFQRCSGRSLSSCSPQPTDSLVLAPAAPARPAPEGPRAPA

[2] = molecular target: T2, Urotensin-2 receptor (Rattus norvegicus, UniProt P49684); assay: Displacement of [125I]human urotensin 2 from rat urotensin 2 receptor
T2 sequence (P49684 whole entry): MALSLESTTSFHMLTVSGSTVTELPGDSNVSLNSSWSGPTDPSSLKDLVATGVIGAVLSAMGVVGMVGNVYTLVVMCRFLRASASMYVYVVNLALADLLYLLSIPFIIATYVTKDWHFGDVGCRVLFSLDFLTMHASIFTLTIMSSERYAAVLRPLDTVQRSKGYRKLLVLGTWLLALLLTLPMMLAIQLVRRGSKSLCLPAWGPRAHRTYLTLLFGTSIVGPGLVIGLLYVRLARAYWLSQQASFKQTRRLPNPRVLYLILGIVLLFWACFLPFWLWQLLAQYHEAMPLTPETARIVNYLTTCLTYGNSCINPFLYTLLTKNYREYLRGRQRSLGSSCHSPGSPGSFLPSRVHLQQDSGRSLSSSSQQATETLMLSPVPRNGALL

[3] = Displacement of [125I]human urotensin 2 from cat urotensin 2 receptor; parameters: species or system Felis catus
[4] = molecular target: T1, Urotensin-2 receptor; assay: Antagonist activity at human urotensin 2 receptor; format: functional; conditions: read-out: pA2 (converted)
[5] = Blockade of human urotensin 2-induced contraction in cat isolated femoral artery; format: functional, Felis catus
[6] = tested on: Aorta; assay: Blockade of human urotensin 2-induced contraction in rat isolated aorta; format: functional
[7] = molecular target: T1, Urotensin-2 receptor; assay: Inhibition of human recombinant urotensin 2 receptor-mediated calcium mobilization expressed in HEK293 cells by FLIPR assay; format: functional, cell-based
[8] = Half life in rat at 1.2 mg/kg, iv and 2.2 mg/kg, po; format: ADME, organism-based; conditions: in vivo
[9] = molecular target: Cytochrome P450 3A4 (Homo sapiens, UniProt P08684); assay: Inhibition of CYP3A4; format: ADME
Sequence of Cytochrome P450 3A4 (P08684 whole entry): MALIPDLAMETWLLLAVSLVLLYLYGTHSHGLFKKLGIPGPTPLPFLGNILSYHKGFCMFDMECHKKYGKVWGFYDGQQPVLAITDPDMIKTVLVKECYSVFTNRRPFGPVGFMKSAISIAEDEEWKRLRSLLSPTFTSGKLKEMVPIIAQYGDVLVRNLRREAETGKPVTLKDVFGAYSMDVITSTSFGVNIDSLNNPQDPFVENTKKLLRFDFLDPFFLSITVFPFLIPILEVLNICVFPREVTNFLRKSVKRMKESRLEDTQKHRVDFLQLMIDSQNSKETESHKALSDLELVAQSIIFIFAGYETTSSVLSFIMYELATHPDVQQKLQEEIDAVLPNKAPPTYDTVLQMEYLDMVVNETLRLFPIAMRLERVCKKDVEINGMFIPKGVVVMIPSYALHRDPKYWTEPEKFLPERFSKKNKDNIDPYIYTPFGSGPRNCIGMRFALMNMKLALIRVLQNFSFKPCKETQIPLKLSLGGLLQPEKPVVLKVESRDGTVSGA

[10] = Bioavailability in rat at 2.2 mg/kg, po; format: ADME, organism-based; conditions: in vivo
[11] = Clearance in rat at 1.2 mg/kg, iv and 2.2 mg/kg, po; format: ADME, organism-based; conditions: in vivo
[12] = molecular target: Cytochrome P450 2D6 (Homo sapiens, UniProt P10635); assay: Inhibition of CYP2D6; format: ADME
Sequence of Cytochrome P450 2D6 (P10635 whole entry): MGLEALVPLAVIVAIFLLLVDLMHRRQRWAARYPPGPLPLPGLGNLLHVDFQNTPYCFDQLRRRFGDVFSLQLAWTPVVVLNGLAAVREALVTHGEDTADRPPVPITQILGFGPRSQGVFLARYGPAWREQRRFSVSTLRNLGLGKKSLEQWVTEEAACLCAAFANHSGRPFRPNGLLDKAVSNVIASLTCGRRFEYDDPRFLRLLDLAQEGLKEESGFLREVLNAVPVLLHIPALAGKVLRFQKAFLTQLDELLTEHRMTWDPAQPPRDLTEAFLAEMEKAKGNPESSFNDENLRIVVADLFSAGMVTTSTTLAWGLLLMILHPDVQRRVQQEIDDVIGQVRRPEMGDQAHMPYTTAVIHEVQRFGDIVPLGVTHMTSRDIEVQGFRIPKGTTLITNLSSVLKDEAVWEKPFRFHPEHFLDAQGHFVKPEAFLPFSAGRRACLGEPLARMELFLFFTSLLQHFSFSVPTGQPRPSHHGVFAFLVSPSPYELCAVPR

[13] = Volume of distribution at steady state in rat at 1.2 mg/kg, iv and 2.2 mg/kg, po; format: ADME, organism-based; conditions: in vivo, read-out: Vdss

| SMILES | Ki [1] | other results |
| --- | --- | --- |
| O=C(Cc1csc2ccc(Br)cc12)N1CCC[C@H](c2ccccc2)[C@@H]1CN1CCCC1 | 7.94 nM |  |
| CC(=O)N(CC(=O)N1CCC[C@H](c2ccccc2)[C@@H]1CN1CCCC1)c1ccc(Cl)c(Cl)c1 | 1580 nM |  |
| CN(CC(=O)N1CCC[C@H](c2ccccc2)[C@@H]1CN1CCCC1)c1ccc(Cl)cc1 | 501 nM |  |
| O=C(Cc1csc2ccc(Cl)cc12)N1CCC[C@@H](c2ccccc2)[C@H]1CN1CCCC1 | 1000 nM |  |
| O=C(Cc1ccsc1)N1CCC[C@H](c2ccccc2)[C@@H]1CN1CCCC1 | > 7940 nM |  |
| COc1cccc(N(C)CC(=O)N2CCC[C@H](c3ccccc3)[C@@H]2CN2CCCC2)c1 | 794 nM |  |
| O=C(Cc1csc2ccc(Cl)cc12)N1CCCCC1CN1CCCCC1 (stereo unspecified) | 7940 nM |  |
| O=C(c1cccc2ccccc12)N1CCC[C@H](c2ccccc2)[C@@H]1CN1CCCC1 | > 7940 nM |  |
| CCCO[C@H]1CCCN(C(=O)Cc2csc3ccc(Cl)cc23)[C@H]1CN1CCCC1 (relative stereo) | 31.6 nM |  |
| O=C(Cc1ccc(Cl)c(Cl)c1)N1CCC[C@H](c2ccccc2)[C@@H]1CN1CCCC1 | 2510 nM |  |
| O=C(Cc1csc2ccc(Cl)cc12)N1C[C@H](c2ccccc2)CC[C@H]1CN1CCCC1 (relative stereo) | 31.6 nM |  |
| O=C(Cc1csc2ccc(Cl)cc12)N1CCCCCC1CN1CCCC1 (stereo unspecified) | 2000 nM |  |
| O=C(Cc1csc2ccc(Cl)cc12)N1CCC[C@H](c2ccccc2)[C@@H]1CN1CCCC1 | 3.98 nM | Ki [2]: 10 nM; Log Ki [3]: -8; Kb [4]: 10 nM; pKb [5]: 7.2; pKb [6]: 7.7 |
| Cc1ccc(N(C)CC(=O)N2CCC[C@H](c3ccccc3)[C@@H]2CN2CCCC2)cc1C | 200 nM |  |
| O=C(Cc1csc2ccc(Cl)cc12)N1CCCCC1CN1CCOCC1 (stereo unspecified) | 1260 nM |  |
| O=C(Cc1csc2ccc(Cl)cc12)N1CCCC1CN1CCCC1 (stereo unspecified) | > 7940 nM |  |
| CN(CC(=O)N1CCC[C@@H](c2ccccc2)[C@H]1CN1CCCC1)c1ccc(Cl)c(Cl)c1 | 1580 nM |  |
| CN1CCN(CC2CCCCN2C(=O)Cc2csc3ccc(Cl)cc23)CC1 (stereo unspecified) | > 7940 nM |  |
| CN(CC(=O)N1CCC[C@H](c2ccccc2)[C@@H]1CN1CCCC1)c1ccc2ccccc2c1 | 158 nM |  |
| O=C(Cc1csc2ccc(Cl)cc12)N1CC[C@H](c2ccccc2)C[C@@H]1CN1CCCC1 (relative stereo) | 200 nM |  |
| CN(CC(=O)N1CCC[C@H](c2ccccc2)[C@@H]1CN1CCCC1)c1cccc(C(F)(F)F)c1 | 100 nM |  |
| CN(CC(=O)N1CCC[C@H](c2ccccc2)[C@@H]1CN1CCCC1)c1ccccc1 | 3160 nM |  |
| CN(CC(=O)N1CCCCC1CN1CCCC1)c1ccc(Cl)c(Cl)c1 (stereo unspecified) | 398 nM | IC50 [7]: 631 nM |

| SMILES | Ki [1] | other results |
| --- | --- | --- |
| CN(CC(=O)N1CCC[C@H](c2ccccc2)[C@@H]1CN1CCCC1)c1cccc(Cl)c1 | 79.4 nM |  |
| CCN(CC(=O)N1CCC[C@H](c2ccccc2)[C@@H]1CN1CCCC1)c1ccc(Cl)c(Cl)c1 | 31.6 nM |  |
| O=C(Cc1ccc2ccccc2c1)N1CCC[C@H](c2ccccc2)[C@@H]1CN1CCCC1 | 7940 nM |  |
| O=C(Cc1csc2ccc(Cl)cc12)N1CCOCC1CN1CCCC1 (stereo unspecified) | 794 nM |  |
| O=C(CNc1ccc(Cl)c(Cl)c1)N1CCC[C@H](c2ccccc2)[C@@H]1CN1CCCC1 | 63.1 nM |  |
| O=C(Cc1c[nH]c2ccc(Br)cc12)N1CCC[C@H](c2ccccc2)[C@@H]1CN1CCCC1 | 631 nM |  |
| O=C(Cc1csc2ccc(Cl)cc12)N1CCCCC1CN1CCCC1 (stereo unspecified) | 501 nM |  |
| CN(CC(=O)N1CCC[C@H](c2ccccc2)[C@@H]1CN1CCCC1)c1ccc(Cl)c(Cl)c1 (stereo in doubt; 10b) | 15.8 nM | half-life [8]: 3.8 h; IC50 [9]: 1400 nM; bioavailability [10]: 0%; clearance [11]: 97 mL/min/kg; IC50 [12]: 800 nM; Vd [13]: 23 L/kg |
| CS(=O)(=O)N(CC(=O)N1CCC[C@H](c2ccccc2)[C@@H]1CN1CCCC1)c1ccc(Cl)c(Cl)c1 | 79.4 nM |  |
| CCN(CC)CC1CCCCN1C(=O)Cc1csc2ccc(Cl)cc12 (stereo unspecified) | > 7940 nM |  |
| O=C(Cc1csc2ccc(Cl)cc12)N1CCC[C@H](c2ccccc2)[C@@H]1CN1CCCC1 (relative stereo) | 7.94 nM |  |
| C[C@H]1CCCN(C(=O)Cc2csc3ccc(Cl)cc23)[C@H]1CN1CCCC1 (relative stereo) | 200 nM |  |
| Cc1ccc2scc(CCC(=O)N3CCC[C@H](c4ccccc4)[C@@H]3CN3CCCC3)c2c1 | 3160 nM |  |
| CN(CC(=O)N1CCC[C@H](c2ccccc2)[C@@H]1CN1CCCC1)Cc1ccc(Cl)c(Cl)c1 | 3980 nM |  |
| O=C(Cc1cccc2ccccc12)N1CCC[C@H](c2ccccc2)[C@@H]1CN1CCCC1 | 79.4 nM |  |
| O=C(Cc1csc2ccc(Cl)cc12)N1CCC[C@H](C2CCCCC2)[C@@H]1CN1CCCC1 (relative stereo) | 25.1 nM |  |
| O=C(Cc1csc2ccccc12)N1CCC[C@H](c2ccccc2)[C@@H]1CN1CCCC1 | 251 nM |  |
| Cc1ccc2scc(CC(=O)N3CCC[C@H](c4ccccc4)[C@@H]3CN3CCCC3)c2c1 | 15.8 nM |  |
| CN(CC(=O)N1CCC[C@H](c2ccccc2)[C@@H]1CN1CCCC1)c1ccccc1Cl | 794 nM |  |
| O=C(CN(CC1CC1)c1ccc(Cl)c(Cl)c1)N1CCC[C@H](c2ccccc2)[C@@H]1CN1CCCC1 | 50.1 nM |  |
| CN(CC(=O)N1CCC[C@H](c2ccccc2)[C@@H]1CN1CCCC1)c1ccc(Cl)c(Cl)c1 (stereo in doubt; 11a) | 6.31 nM | Ki [2]: 6.31 nM; Log Ki [3]: -8.1; pKb [5]: 7.2; pKb [6]: 7.9 |
| Cc1cccc(N(C)CC(=O)N2CCC[C@H](c3ccccc3)[C@@H]2CN2CCCC2)c1 | 398 nM |  |
